Assay results published in ChEMBL document CHEMBL1909046, “DrugMatrix in vitro pharmacology data”.

What was measured:
[1] = target: T1, Alpha-1B adrenergic receptor (Rattus norvegicus, UniProt P15823); assay: DRUGMATRIX: Alpha-1B adrenergic receptor radioligand binding (ligand: prazosin); assay type: cell membranes, Wistar, Liver, Membrane; conditions: Not Active = under 50% inhibition at 10 µM
T1 sequence (P15823 whole entry): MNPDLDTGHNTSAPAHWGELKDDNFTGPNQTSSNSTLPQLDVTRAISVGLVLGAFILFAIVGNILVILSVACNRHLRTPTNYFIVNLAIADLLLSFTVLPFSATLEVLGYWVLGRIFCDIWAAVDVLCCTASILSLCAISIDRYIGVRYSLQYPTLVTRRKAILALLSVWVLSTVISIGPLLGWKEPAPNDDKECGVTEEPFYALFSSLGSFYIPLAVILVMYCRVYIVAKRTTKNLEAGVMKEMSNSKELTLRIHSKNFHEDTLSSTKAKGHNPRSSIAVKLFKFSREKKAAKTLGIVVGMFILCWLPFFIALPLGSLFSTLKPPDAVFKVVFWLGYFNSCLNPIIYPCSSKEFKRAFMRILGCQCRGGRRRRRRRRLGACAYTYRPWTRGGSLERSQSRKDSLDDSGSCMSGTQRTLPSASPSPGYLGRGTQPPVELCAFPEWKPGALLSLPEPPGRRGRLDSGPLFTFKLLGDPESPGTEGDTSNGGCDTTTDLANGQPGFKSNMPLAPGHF

[2] = DRUGMATRIX: Atrial Natriuretic Factor (ANF) radioligand binding (ligand: [125I] ANF (rat)); assay type: cell membranes, Cavia porcellus, Dunkin-Hartley, Adrenal gland, Membrane; conditions: Not Active = under 50% inhibition at 10 µM
Substance-K receptor = target: T2, Substance-K receptor (Homo sapiens, UniProt P21452); assay type: cell membranes, CHO, Membrane; conditions: cho; note: in other assays of this panel Not Active means under 50% inhibition at 10 µM
T2 sequence (P21452 whole entry): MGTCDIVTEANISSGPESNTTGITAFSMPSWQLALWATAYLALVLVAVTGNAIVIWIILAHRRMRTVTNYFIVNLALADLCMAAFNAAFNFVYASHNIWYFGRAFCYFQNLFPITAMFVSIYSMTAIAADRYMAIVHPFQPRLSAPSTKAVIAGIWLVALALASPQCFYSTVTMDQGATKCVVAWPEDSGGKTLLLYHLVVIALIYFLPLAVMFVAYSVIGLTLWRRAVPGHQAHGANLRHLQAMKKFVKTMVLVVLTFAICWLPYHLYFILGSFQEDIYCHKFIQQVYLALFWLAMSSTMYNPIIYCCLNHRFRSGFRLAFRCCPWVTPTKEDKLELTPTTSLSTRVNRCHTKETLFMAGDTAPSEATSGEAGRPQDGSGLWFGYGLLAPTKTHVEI

Vasopressin V1a receptor = Vasopressin V1a receptor (Homo sapiens, UniProt P37288); assay type: cell membranes, Membrane; conditions: hek293; note: in other assays of this panel Not Active means under 50% inhibition at 10 µM
Vasopressin V1a receptor, sequence (P37288 whole entry): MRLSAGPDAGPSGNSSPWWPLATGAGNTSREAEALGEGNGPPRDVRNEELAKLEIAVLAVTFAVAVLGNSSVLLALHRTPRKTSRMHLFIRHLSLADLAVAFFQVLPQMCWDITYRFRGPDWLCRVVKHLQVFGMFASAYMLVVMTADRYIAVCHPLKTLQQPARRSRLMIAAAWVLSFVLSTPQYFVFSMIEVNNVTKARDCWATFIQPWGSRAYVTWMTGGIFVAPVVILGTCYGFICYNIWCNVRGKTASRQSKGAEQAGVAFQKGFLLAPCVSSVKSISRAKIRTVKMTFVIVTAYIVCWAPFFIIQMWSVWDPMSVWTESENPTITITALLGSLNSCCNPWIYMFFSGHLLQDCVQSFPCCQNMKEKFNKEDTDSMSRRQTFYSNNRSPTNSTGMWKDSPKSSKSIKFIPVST

[3] = target: T3, 5-hydroxytryptamine receptor 1A (Rattus norvegicus, UniProt P19327); assay type: cell membranes, CHO-K1, Membrane; conditions: cho-k1; note: in other assays of this panel Not Active means under 50% inhibition at 10 µM
T3 sequence (P19327 whole entry): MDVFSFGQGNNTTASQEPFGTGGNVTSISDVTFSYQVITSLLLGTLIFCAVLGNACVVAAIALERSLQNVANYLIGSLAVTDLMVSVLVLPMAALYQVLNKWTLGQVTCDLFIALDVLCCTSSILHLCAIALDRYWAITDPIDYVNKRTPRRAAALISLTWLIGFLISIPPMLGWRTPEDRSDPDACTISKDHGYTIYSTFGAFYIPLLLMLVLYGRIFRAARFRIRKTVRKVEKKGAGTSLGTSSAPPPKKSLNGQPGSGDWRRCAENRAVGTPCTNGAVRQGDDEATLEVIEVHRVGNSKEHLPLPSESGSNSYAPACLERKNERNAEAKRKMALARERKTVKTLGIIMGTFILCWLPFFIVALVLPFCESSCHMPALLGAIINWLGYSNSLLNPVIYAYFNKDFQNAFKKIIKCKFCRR

Glucocorticoid receptor = target: T4, Glucocorticoid receptor (Homo sapiens, UniProt P04150); conditions: hela s3; note: in other assays of this panel Not Active means under 50% inhibition at 10 µM
T4 sequence (P04150 whole entry): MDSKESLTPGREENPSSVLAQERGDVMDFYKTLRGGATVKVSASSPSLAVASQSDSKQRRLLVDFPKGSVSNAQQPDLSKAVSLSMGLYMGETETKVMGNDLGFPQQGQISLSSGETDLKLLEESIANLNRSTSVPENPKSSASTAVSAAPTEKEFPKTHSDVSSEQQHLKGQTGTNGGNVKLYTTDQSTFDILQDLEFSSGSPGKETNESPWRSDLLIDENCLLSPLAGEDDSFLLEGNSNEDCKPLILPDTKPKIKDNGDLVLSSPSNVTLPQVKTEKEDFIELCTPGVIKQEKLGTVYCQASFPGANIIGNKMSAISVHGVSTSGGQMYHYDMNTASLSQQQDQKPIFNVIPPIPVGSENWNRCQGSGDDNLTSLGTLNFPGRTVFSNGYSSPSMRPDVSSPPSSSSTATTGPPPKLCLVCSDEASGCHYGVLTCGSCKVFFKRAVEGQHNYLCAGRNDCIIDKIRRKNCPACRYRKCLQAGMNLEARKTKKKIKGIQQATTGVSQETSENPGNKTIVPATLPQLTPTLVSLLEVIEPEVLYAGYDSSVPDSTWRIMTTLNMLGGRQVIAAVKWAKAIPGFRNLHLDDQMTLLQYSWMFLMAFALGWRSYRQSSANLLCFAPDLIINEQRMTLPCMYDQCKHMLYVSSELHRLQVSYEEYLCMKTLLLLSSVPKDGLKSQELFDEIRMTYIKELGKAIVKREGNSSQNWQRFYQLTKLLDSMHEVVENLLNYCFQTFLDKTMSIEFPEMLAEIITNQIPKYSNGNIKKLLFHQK

Cytochrome P450 2C9 = Cytochrome P450 2C9 (Homo sapiens, UniProt P11712); conditions: bti-tn-5b1-4; note: in other assays of this panel Not Active means under 50% inhibition at 10 µM
Cytochrome P450 2C9, sequence (P11712 whole entry): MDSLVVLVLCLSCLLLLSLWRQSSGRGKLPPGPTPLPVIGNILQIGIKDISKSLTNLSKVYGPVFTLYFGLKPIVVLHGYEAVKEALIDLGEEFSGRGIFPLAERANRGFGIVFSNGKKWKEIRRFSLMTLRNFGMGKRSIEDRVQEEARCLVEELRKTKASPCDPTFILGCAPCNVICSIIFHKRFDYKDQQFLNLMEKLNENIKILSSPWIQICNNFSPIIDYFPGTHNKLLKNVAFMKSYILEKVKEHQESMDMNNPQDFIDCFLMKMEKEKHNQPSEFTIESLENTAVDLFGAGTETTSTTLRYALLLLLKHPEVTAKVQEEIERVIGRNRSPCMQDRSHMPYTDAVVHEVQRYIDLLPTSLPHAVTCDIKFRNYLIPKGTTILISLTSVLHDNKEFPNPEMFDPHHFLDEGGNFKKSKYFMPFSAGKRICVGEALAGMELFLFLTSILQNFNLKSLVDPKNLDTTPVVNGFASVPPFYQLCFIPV

N[C@@H](Cc1ccc(F)cc1)C(=O)O
Not Active: IC50 [1] | IC50 [2] | Ki [2] | IC50 (Substance-K receptor) | IC50 (Vasopressin V1a receptor) | IC50 [3] | IC50 (Glucocorticoid receptor)

O=C(c1ccccc1Cl)N1CCC(Cc2ccccc2)CC1
Not Active: IC50 [1] | IC50 [2] | Ki [2] | IC50 (Substance-K receptor) | IC50 (Vasopressin V1a receptor) | IC50 [3] | IC50 (Glucocorticoid receptor)

C[C@@H]1CC[C@H]2[C@@H](C)C(=O)O[C@@H]3O[C@@]4(C)CC[C@@H]1[C@]32OO4 [ARTEMISININ]
Not Active: IC50 [1] | IC50 [2] | Ki [2] | IC50 (Substance-K receptor) | IC50 (Vasopressin V1a receptor) | IC50 [3] | IC50 (Glucocorticoid receptor)

NC(=O)N1c2ccccc2C=Cc2ccccc21 [CARBAMAZEPINE]
Not Active: IC50 [1] | IC50 [2] | Ki [2] | IC50 (Substance-K receptor) | IC50 (Vasopressin V1a receptor) | IC50 [3] | IC50 (Cytochrome P450 2C9) | Ki (Cytochrome P450 2C9)

O=C(O)c1cc(=O)c2c(OCC(O)COc3cccc4oc(C(=O)O)cc(=O)c34)cccc2o1 [CROMOLYN]
Not Active: IC50 [1] | IC50 [2] | Ki [2] | IC50 (Substance-K receptor) | IC50 (Vasopressin V1a receptor) | IC50 [3] | IC50 (Cytochrome P450 2C9) | Ki (Cytochrome P450 2C9)

CC(=O)O[C@]1(C(C)=O)CC[C@H]2[C@@H]3C=C(Cl)C4=CC(=O)[C@@H]5C[C@@H]5[C@]4(C)[C@H]3CC[C@@]21C [CYPROTERONE ACETATE]
Not Active: IC50 [1] | IC50 [2] | Ki [2] | IC50 (Substance-K receptor) | IC50 (Vasopressin V1a receptor) | IC50 [3] | IC50 (Cytochrome P450 2C9) | Ki (Cytochrome P450 2C9)

C[C@H](C(=O)O)c1cccc(C(=O)c2ccccc2)c1 [DEXKETOPROFEN]
Not Active: IC50 [1] | IC50 [2] | Ki [2] | IC50 (Substance-K receptor) | IC50 (Vasopressin V1a receptor) | IC50 [3] | IC50 (Cytochrome P450 2C9) | Ki (Cytochrome P450 2C9)

CCn1cc(C(=O)O)c(=O)c2cc(F)c(N3CCNCC3)nc21 [ENOXACIN]
Not Active: IC50 [1] | IC50 [2] | Ki [2] | IC50 (Substance-K receptor) | IC50 (Vasopressin V1a receptor) | IC50 [3] | IC50 (Cytochrome P450 2C9) | Ki (Cytochrome P450 2C9)

C#C[C@]1(O)CC[C@H]2[C@@H]3CCc4cc(O)ccc4[C@H]3CC[C@@]21C [ETHINYL ESTRADIOL]
Not Active: IC50 [1] | IC50 [2] | Ki [2] | IC50 (Substance-K receptor) | IC50 (Vasopressin V1a receptor) | IC50 [3] | IC50 (Cytochrome P450 2C9) | Ki (Cytochrome P450 2C9)

OCCO [ETHYLENE GLYCOL]
Not Active: IC50 [1] | IC50 [2] | Ki [2] | IC50 (Substance-K receptor) | IC50 (Vasopressin V1a receptor) | IC50 [3] | IC50 (Cytochrome P450 2C9) | Ki (Cytochrome P450 2C9)

NC[C@@H]1O[C@H](O[C@H]2[C@@H](O)[C@H](O[C@@H]3[C@@H](O)[C@H](N)C[C@H](N)[C@H]3O[C@H]3O[C@H](CN)[C@@H](O)[C@H](O)[C@H]3N)O[C@@H]2CO)[C@H](N)[C@@H](O)[C@@H]1O [FRAMYCETIN]
Not Active: IC50 [1] | IC50 [2] | Ki [2] | IC50 (Substance-K receptor) | IC50 (Vasopressin V1a receptor) | IC50 [3] | IC50 (Cytochrome P450 2C9) | Ki (Cytochrome P450 2C9)

C[C@]12CCC(=O)C=C1CC[C@@H]1[C@@H]2[C@@H](O)C[C@@]2(C)[C@H]1CC[C@]2(O)C(=O)CO [HYDROCORTISONE]
Not Active: IC50 [1] | IC50 [2] | Ki [2] | IC50 (Substance-K receptor) | IC50 (Vasopressin V1a receptor) | IC50 [3] | IC50 (Cytochrome P450 2C9) | Ki (Cytochrome P450 2C9)

CC(C(=O)O)c1ccc(CC2CCCC2=O)cc1 (stereo not given) [LOXOPROFEN]
Not Active: IC50 [1] | IC50 [2] | Ki [2] | IC50 (Substance-K receptor) | IC50 (Vasopressin V1a receptor) | IC50 [3] | IC50 (Cytochrome P450 2C9) | Ki (Cytochrome P450 2C9)

COC(=O)c1ccccc1O [METHYL SALICYLATE]
Not Active: IC50 [1] | IC50 [2] | Ki [2] | IC50 (Substance-K receptor) | IC50 (Vasopressin V1a receptor) | IC50 [3] | IC50 (Cytochrome P450 2C9) | Ki (Cytochrome P450 2C9)

CC(C)(CO)C(O)C(=O)NCCCO (stereo not given) [PANTHENOL]
Not Active: IC50 [1] | IC50 [2] | Ki [2] | IC50 (Substance-K receptor) | IC50 (Vasopressin V1a receptor) | IC50 [3] | IC50 (Cytochrome P450 2C9) | Ki (Cytochrome P450 2C9)

COc1ccc(Cc2nccc3cc(OC)c(OC)cc23)cc1OC [PAPAVERINE]
Not Active: IC50 [1] | IC50 [2] | Ki [2] | IC50 (Substance-K receptor) | IC50 (Vasopressin V1a receptor) | IC50 [3] | IC50 (Cytochrome P450 2C9) | Ki (Cytochrome P450 2C9)
